According to patent US20080119515A1, “Heterocyclic Kinase Inhibitors: Methods of Use and Synthesis” (priority 2003, published 2008):

These compounds were tested against T1, ZAP-70 (Homo sapiens, UniProt P43403) (assay: DELFIA assay (ZAP-70 kinase, phosphorylation of biotinylated poly(glu,tyr))). Details: ZAP-70 DELFIA, class symbols; read-out: Activity (IC50 in vitro).
T1 sequence (P43403 1-619): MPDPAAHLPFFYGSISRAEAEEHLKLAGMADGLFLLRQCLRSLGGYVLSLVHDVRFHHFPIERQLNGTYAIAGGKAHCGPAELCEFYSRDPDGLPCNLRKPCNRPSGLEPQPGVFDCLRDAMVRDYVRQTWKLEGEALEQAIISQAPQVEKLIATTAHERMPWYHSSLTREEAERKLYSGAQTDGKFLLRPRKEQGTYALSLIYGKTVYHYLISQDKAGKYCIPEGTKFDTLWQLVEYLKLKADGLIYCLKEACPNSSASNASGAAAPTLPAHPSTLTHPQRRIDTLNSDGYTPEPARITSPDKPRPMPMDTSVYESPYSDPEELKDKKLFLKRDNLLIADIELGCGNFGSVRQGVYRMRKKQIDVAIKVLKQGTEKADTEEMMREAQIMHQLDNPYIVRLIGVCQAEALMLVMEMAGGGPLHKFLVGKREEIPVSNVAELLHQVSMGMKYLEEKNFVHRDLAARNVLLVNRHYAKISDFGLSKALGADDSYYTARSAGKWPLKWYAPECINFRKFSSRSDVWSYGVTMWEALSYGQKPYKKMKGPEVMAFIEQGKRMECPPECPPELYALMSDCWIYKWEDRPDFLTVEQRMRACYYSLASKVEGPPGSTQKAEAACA
Format: biochemical
Description: Before initiation of kinase reactions, compounds were pre-incubated with ZAP-70. Pre-incubation reactions contained 62.5 mM Mops pH 7.0, 12.5 mM MgCl2, 12.5% glycerol, 3.1 nM ZAP-70, 62.5 nM biotinylated poly(glu,Tyr), 0.1 mg/ml BSA, 6.25% DMSO and […] compound in a total volume of […]. After a 10 minute room temperature incubation, 10 ml of 5 mM ATP was added to start the reaction. Reactions were incubated at room temperature for 30 minutes then terminated by addition of 5 ml 500 mM EDTA. The amount of phosphate transferred to biotinylated poly(glu,tyr) was measured using the Dissociation Enhanced Lanthanide Fluorescence Immuno-assay (DELFIA) from Perkin Elmer according to manufacturers protocol. Briefly, biotinylated […] was captured on streptavidin coated plates, washed twice, then incubated with Europium labeled-anti-phosphotyrosine antibody. Free antibody was removed with six washes, Europium was dissociated from the antibody, and Europium fluorescence was measured at using an excitation wavelength of 340 nm and an emission wavelength of 615 nm.

Going from `O=C(c1cc(NCc2ccc(C(F)(F)F)cc2)nc2ccc(-c3cccc(Cl)c3)cc12)N1CCC[C@H]1CN1CCCC1` [Compound 306] to `O=C(c1cc(NCc2ccc(C(F)(F)F)cc2)nc2ccc(-c3ccccc3Cl)cc12)N1CCC[C@H]1CN1CCCC1` [Compound 347], the IC50 rises from < 1 µM to > 10 µM.

`O=C(c1cc(CCc2ccccc2F)nc2ccc(-c3ccc4c(c3)OCO4)cc12)N1CCC[C@H]1CN1CCCC1` [Compound 395] and `O=C(c1cc(CCCCc2ccccc2)nc2ccc(-c3ccc4c(c3)OCO4)cc12)N1CCC[C@H]1CN1CCCC1` [Compound 435] cannot be ordered by IC50: < 1 µM for the first, < 1 µM for the second.

First: Cn1cncc1-c1ccc2nc(NCc3ccc(C(F)(F)F)cc3)cc(C(=O)N3CCC[C@H]3CN3CCCC3)c2c1 [Compound 342]
Second: CC(=O)c1ccc(-c2ccc3nc(NCc4ccc(C(F)(F)F)cc4)cc(C(=O)N4CCC[C@H]4CN4CCCC4)c3c2)s1 [Compound 299]
The IC50 of the first is higher: > 10 µM for the first, < 1 µM for the second.

`O=C(c1cc(N[C@H]2CCc3ccccc32)nc2ccc(-c3ccc4c(c3)OCO4)cc12)N1CCC[C@H]1CN1CCCC1` [Compound 41] and `COc1ccc(Nc2cc(C(=O)N3CCC[C@H]3CN3CCCC3)c3cc(-c4ccc5c(c4)OCO5)ccc3n2)cc1` [Compound 15] cannot be ordered by IC50: < 1 µM for the first, < 1 µM for the second.

`N#Cc1ccc(-c2ccc3nc(NCc4cc(F)ccc4C(F)(F)F)cc(C(=O)N4CCC[C@H]4CN4CCCC4)c3c2)cc1` [Compound 241] and `N#Cc1ccc(-c2ccc3nc(NCc4ccc(F)cc4C(F)(F)F)cc(C(=O)N4CCC[C@H]4CN4CCCC4)c3c2)cc1` [Compound 239] cannot be ordered by IC50: > 10 µM for the first, > 10 µM for the second.

`COc1ccc([C@@H](C)Nc2cc(C(=O)N3CCC[C@H]3CN3CCCC3)c3cc(-c4ccc(C#N)cc4)ccc3n2)cc1` [Compound 202] and `C[C@@H](Nc1cc(C(=O)N2CCC[C@H]2CN2CCCC2)c2cc(-c3ccc(C#N)cc3)ccc2n1)c1ccccc1` [Compound 201] cannot be ordered by IC50: > 10 µM for the first, > 10 µM for the second.

Compared with `O=C(c1cc(NCc2ccc(C(F)(F)F)cc2)nc2ccc(-c3cc4ccccc4s3)cc12)N1CCC[C@H]1CN1CCCC1` [Compound 298], `O=C(c1cc(NCc2ccc(C(F)(F)F)cc2)nc2ccc(-c3ccc(-c4cnco4)s3)cc12)N1CCC[C@H]1CN1CCCC1` [Compound 355] is higher in IC50: 1 to 10 µM for the first, > 10 µM for the second.

`N#Cc1ccc(-c2ccc3nc(N4CCOC(c5ccccc5)C4)cc(C(=O)N4CCC[C@H]4CN4CCCC4)c3c2)cc1` (stereo partly drawn) [Compound 255] and `N#Cc1ccc(-c2ccc3nc(N4CCC(c5ccccc5)C4)cc(C(=O)N4CCC[C@H]4CN4CCCC4)c3c2)cc1` (stereo partly drawn) [Compound 254] cannot be ordered by IC50: > 10 µM for the first, > 10 µM for the second.

Compared with `O=C(c1cc(NCc2ccc(C(F)(F)F)cc2)nc2ccc(-c3cccc(Cl)c3Cl)cc12)N1CCC[C@H]1CN1CCCC1` [Compound 346], `O=C(c1cc(NCc2ccc(C(F)(F)F)cc2)nc2ccc(CCc3ccc(Cl)cc3)cc12)N1CCC[C@H]1CN1CCCC1` [Compound 287] is lower in IC50: > 10 µM for the first, 1 to 10 µM for the second.

First: O=C(c1cc(NCc2ccc(C(F)(F)F)cc2)nc2ccc(C#Cc3ccccc3)cc12)N1CCC[C@H]1CN1CCCC1 [Compound 281]
Second: O=C(c1cc(NCc2ccc(C(F)(F)F)cc2)nc2ccc(CCc3ccccc3)cc12)N1CCC[C@H]1CN1CCCC1 [Compound 285]
The IC50 of the first is lower: < 1 µM for the first, 1 to 10 µM for the second.

Compared with `O=C(c1cc(NCc2ccc(C(F)(F)F)cc2)nc2ccc(-c3cccc([C@H]4CNCC[C@@H]4O)c3)cc12)N1CCC[C@H]1CN1CCCC1` [Compound 427], `O=C(c1cc(NCc2ccc(C(F)(F)F)cc2)nc2ccc(CCc3cccc(C(F)(F)F)c3)cc12)N1CCC[C@H]1CN1CCCC1` [Compound 289] is lower in IC50: > 10 µM for the first, 1 to 10 µM for the second.

First: O=C(NCCc1ccccc1)c1cc(C(=O)N2CCC[C@H]2CN2CCCC2)c2cc(-c3ccc4c(c3)OCO4)ccc2n1 [Compound 141]
Second: O=C(c1cc(OCc2ccccc2)nc2ccc(-c3ccc4c(c3)OCO4)cc12)N1CCC[C@H]1CN1CCCC1 [Compound 23]
The IC50 of the first is higher: 1 to 10 µM for the first, < 1 µM for the second. The second is the more potent here.

First: O=C(c1cc(CC(O)c2ccc(C(F)(F)F)cc2)nc2ccc(-c3ccc4c(c3)OCO4)cc12)N1CCC[C@H]1CN1CCCC1 (stereo partly drawn) [Compound 436]
Second: O=C(c1cc(/C=C/c2ccc(C(F)(F)F)cc2)nc2ccc(-c3ccc4c(c3)OCO4)cc12)N1CCC[C@H]1CN1CCCC1 [Compound 133]
The IC50 of the first is lower: < 1 µM for the first, 1 to 10 µM for the second. The first is the more potent here.

`N#Cc1ccc(-c2ccc3nc(N4CCC(c5ccc(Cl)cc5)C4)cc(C(=O)N4CCC[C@H]4CN4CCCC4)c3c2)cc1` (stereo partly drawn) [Compound 261] and `N#Cc1ccc(-c2ccc3nc(N4CCC(c5ccc(F)cc5)C4)cc(C(=O)N4CCC[C@H]4CN4CCCC4)c3c2)cc1` (stereo partly drawn) [Compound 264] cannot be ordered by IC50: > 10 µM for the first, > 10 µM for the second.

Compared with `O=C(c1cc2cc(-c3ccc4c(c3)OCO4)ccc2nc1NCc1ccc(C(F)(F)F)cc1)N1CCCC1CN1CCCC1` (stereo not drawn) [Compound 128], `FC(F)(F)c1ccc(CNc2cc(N3CCC[C@H]3CN3CCCC3)c3cc(-c4ccc5c(c4)OCO5)ccc3n2)cc1` [Compound 103] is lower in IC50: > 10 µM for the first, 1 to 10 µM for the second.

`COc1ccccc1CNc1cc(C(=O)N2CCC[C@H]2CN2CCCC2)c2cc(-c3ccc(C#N)cc3)ccc2n1` [Compound 151] and `Cc1ccc(F)cc1CNc1cc(C(=O)N2CCC[C@H]2CN2CCCC2)c2cc(-c3ccc(C#N)cc3)ccc2n1` [Compound 226] cannot be ordered by IC50: > 10 µM for the first, > 10 µM for the second.

`N#Cc1ccc(-c2ccc3nc(NCCc4ccc(Br)cc4)cc(C(=O)N4CCC[C@H]4CN4CCCC4)c3c2)cc1` [Compound 243] and `Cc1ccc(CNc2cc(C(=O)N3CCC[C@H]3CN3CCCC3)c3cc(-c4ccc(C#N)cc4)ccc3n2)cc1F` [Compound 227] cannot be ordered by IC50: > 10 µM for the first, > 10 µM for the second.

`O=C(c1cc(C#Cc2cccc(C(F)(F)F)c2)nc2ccc(-c3ccc4c(c3)OCO4)cc12)N1CCC[C@H]1CN1CCCC1` [Compound 404] and `COc1ccc(C#Cc2cc(C(=O)N3CCC[C@H]3CN3CCCC3)c3cc(-c4ccc5c(c4)OCO5)ccc3n2)cc1` [Compound 403] cannot be ordered by IC50: < 1 µM for the first, < 1 µM for the second.

`O=C(c1cc(NCc2ccc(C(F)(F)F)cc2)nc2c(Cl)cc(-c3ccc4c(c3)OCO4)cc12)N1CCC[C@H]1CN1CCCC1` [Compound 384] and `O=C(c1cc(NCc2ccc(F)c(Cl)c2)nc2ccc(-c3ccc4c(c3)OCO4)cc12)N1CCC[C@H]1CN1CCCC1` [Compound 40] cannot be ordered by IC50: < 1 µM for the first, < 1 µM for the second.

`C[C@@H](c1ccccc1)N(C)c1cc(C(=O)N2CCC[C@H]2CN2CCCC2)c2cc(-c3ccc(C#N)cc3)ccc2n1` [Compound 199] and `CC[C@@H](Nc1cc(C(=O)N2CCC[C@H]2CN2CCCC2)c2cc(-c3ccc(C#N)cc3)ccc2n1)c1ccccc1` [Compound 184] cannot be ordered by IC50: > 10 µM for the first, > 10 µM for the second.

`N#Cc1ccc(-c2ccc3nc(NCc4ccccc4-c4ccccc4)cc(C(=O)N4CCC[C@H]4CN4CCCC4)c3c2)cc1` [Compound 251] and `N#Cc1ccc(-c2ccc3nc(NCc4cccc(F)c4)cc(C(=O)N4CCC[C@H]4CN4CCCC4)c3c2)cc1` [Compound 161] cannot be ordered by IC50: > 10 µM for the first, > 10 µM for the second.

First: CN(CCc1ccccc1)c1cc(C(=O)N2CCC[C@H]2CN2CCCC2)cc(Cc2ccccc2)n1 [Compound 369]
Second: CN(CCc1ccccc1)c1cc(C(=O)N2CCC[C@H]2CN2CCCC2)cc(/C=C/c2ccc(C(F)(F)F)cc2)n1 [Compound 366]
The IC50 of the first is higher: > 10 µM for the first, 1 to 10 µM for the second.

`CN(C)C[C@@H]1CCCN1C(=O)c1cc(N(C)C)nc2ccc(-c3ccc4c(c3)OCO4)cc12` [Compound 20] and `CC(C)N(C)C[C@@H]1CCCN1C(=O)c1cc(NCc2ccccc2)nc2ccc(-c3ccc4c(c3)OCO4)cc12` [Compound 84] cannot be ordered by IC50: > 10 µM for the first, > 10 µM for the second.

`N#Cc1ccc(-c2ccc3nc(NCc4csc5ccc(Cl)cc45)cc(C(=O)N4CCC[C@H]4CN4CCCC4)c3c2)cc1` [Compound 242] and `N#Cc1ccc(-c2ccc3nc(N4Cc5ccccc5C[C@H]4CO)cc(C(=O)N4CCC[C@H]4CN4CCCC4)c3c2)cc1` [Compound 245] cannot be ordered by IC50: > 10 µM for the first, > 10 µM for the second.

Compared with `O=C(c1cc(N2CCN(C3CCCC3)CC2)nc2ccc(-c3ccc4c(c3)OCO4)cc12)N1CCC[C@H]1CN1CCCC1` [Compound 79], `O=C(c1cc(NCC2CCCCC2)nc2ccc(-c3ccc4c(c3)OCO4)cc12)N1CCC[C@H]1CN1CCCC1` [Compound 27] is lower in IC50: 1 to 10 µM for the first, < 1 µM for the second. The second is the more potent here.

First: CC(=O)NCCNc1cc(C(=O)N2CCC[C@H]2CN2CCCC2)c2cc(-c3ccc4c(c3)OCO4)ccc2n1 [Compound 71]
Second: COc1cccc(Nc2cc(C(=O)N3CCC[C@H]3CN3CCCC3)c3cc(-c4ccc5c(c4)OCO5)ccc3n2)c1 [Compound 17]
The IC50 of the first is higher: > 10 µM for the first, < 1 µM for the second.

`N#Cc1ccc(-c2ccc3nc(N4CCCC(c5ccccc5F)C4)cc(C(=O)N4CCC[C@H]4CN4CCCC4)c3c2)cc1` (stereo partly drawn) [Compound 267] and `N#Cc1ccc(-c2ccc3nc(N4CCCC(c5ccc(C(F)(F)F)cc5)C4)cc(C(=O)N4CCC[C@H]4CN4CCCC4)c3c2)cc1` (stereo partly drawn) [Compound 266] cannot be ordered by IC50: > 10 µM for the first, > 10 µM for the second.
